Data from ChEMBL document CHEMBL4382269, “Discovery of Potent, Efficient, and Selective Inhibitors of Phosphoinositide 3-Kinase δ through a Deconstruction and Regrowth Approach” (J Med Chem, 2018).
pIC50: −log10 of the molar value. ≈ marks a conversion by molar mass, not a printed value.

How the values were obtained:
Homo sapiens [1] = species: Homo sapiens; experiment: Selectivity ratio of IC50 for LRRK2 (unknown origin) to IC50 for PI3Kdelta (unknown origin)
Homo sapiens [2] = species: Homo sapiens; experiment: Selectivity ratio of IC50 for p38alpha (unknown origin) to IC50 for PI3Kdelta (unknown origin)
[3] = Clearance in human microsomes at 0.5 uM in presence of NADPH measured up to 30 mins by LC-MS/MS analysis; format: ADME, Microsome; settings: 0.5 h
Homo sapiens [4] = species: Homo sapiens; experiment: Selectivity ratio of IC50 for PI4KA (unknown origin) to IC50 for PI3Kdelta (unknown origin)
[5] = target: Voltage-gated inwardly rectifying potassium channel KCNH2 (Homo sapiens, UniProt Q12809); experiment: Inhibition of human ERG expressed in CHO cells after 75 mins by fluorescence polarization assay
Homo sapiens [6] = species: Homo sapiens; experiment: Selectivity ratio of IC50 for PI4KB (unknown origin) to IC50 for PI3Kdelta (unknown origin)
Homo sapiens [7] = species: Homo sapiens; experiment: Selectivity ratio of IC50 for SPHK1 (unknown origin) to IC50 for PI3Kdelta (unknown origin)
Homo sapiens [8] = species: Homo sapiens; experiment: Selectivity ratio of IC50 for Aurora B (unknown origin) to IC50 for PI3Kdelta (unknown origin)
Homo sapiens [9] = species: Homo sapiens; experiment: Selectivity ratio of IC50 for PIK3C3/PIK3R4 (unknown origin) to IC50 for PI3Kdelta (unknown origin)
Homo sapiens [10] = species: Homo sapiens; experiment: Selectivity ratio of IC50 for DAG zeta (unknown origin) to IC50 for PI3Kdelta (unknown origin)
Homo sapiens [11] = species: Homo sapiens; experiment: Selectivity ratio of IC50 for IKK2 (unknown origin) to IC50 for PI3Kdelta (unknown origin)
Homo sapiens [12] = species: Homo sapiens; experiment: Selectivity ratio of IC50 for DAG beta (unknown origin) to IC50 for PI3Kdelta (unknown origin)
Homo sapiens [13] = species: Homo sapiens; experiment: Selectivity ratio of IC50 for ITK (unknown origin) to IC50 for PI3Kdelta (unknown origin)
PBMC = experiment: Inhibition of cytostim stimulated IFNgamma production in human PBMC […] by electrochemiluminescence assay; format: functional, cell-based
serum albumin = serum albumin (Homo sapiens, UniProt P02768); experiment: Binding affinity to human serum albumin by HPLC analysis; format: ADME; settings: read-out: PB (converted)
Homo sapiens [14] = species: Homo sapiens; experiment: Selectivity ratio of IC50 for BTK (unknown origin) to IC50 for PI3Kdelta (unknown origin)
Homo sapiens [15] = species: Homo sapiens; experiment: Selectivity ratio of IC50 for JAK2 (unknown origin) to IC50 for PI3Kdelta (unknown origin)
[16] = Clearance in rat microsomes at 0.5 uM in presence of NADPH measured up to 30 mins by LC-MS/MS analysis; format: ADME, Microsome; settings: 0.5 h
Homo sapiens [17] = species: Homo sapiens; experiment: Selectivity ratio of IC50 for mTOR (unknown origin) to IC50 for PI3Kdelta (unknown origin)
Homo sapiens [18] = species: Homo sapiens; experiment: Selectivity ratio of IC50 for IKK1 (unknown origin) to IC50 for PI3Kdelta (unknown origin)
[19] = target: Phosphatidylinositol 4,5-bisphosphate 3-kinase catalytic subunit gamma isoform (Homo sapiens, UniProt P48736); experiment: Inhibition of PI3Kgamma (unknown origin) using PIP2 as substrate preincubated for 15 mins followed by substrate addition measured after 60 mins by HTRF method
[20] = Kinetic solubility of the compound in phosphate buffer saline at pH 7.4 after 1 hr by CLND method; format: physicochemical; settings: phosphate buffered saline, read-out: Kinetic_solubility
[21] = target: Phosphatidylinositol 4,5-bisphosphate 3-kinase catalytic subunit beta isoform (Homo sapiens, UniProt P42338); experiment: Inhibition of PI3Kbeta (unknown origin) using PIP2 as substrate preincubated for 15 mins followed by substrate addition measured after 60 mins by HTRF method
Homo sapiens [22] = species: Homo sapiens; experiment: Selectivity ratio of IC50 for ASK1 (unknown origin) to IC50 for PI3Kdelta (unknown origin)
Homo sapiens [23] = species: Homo sapiens; experiment: Selectivity ratio of IC50 for PI3Kbeta (unknown origin) to IC50 for PI3Kdelta (unknown origin)
Homo sapiens [24] = species: Homo sapiens; experiment: Selectivity ratio of IC50 for DAG gamma (unknown origin) to IC50 for PI3Kdelta (unknown origin)
[25] = target: Phosphatidylinositol 4,5-bisphosphate 3-kinase catalytic subunit alpha isoform (Homo sapiens, UniProt P42336); experiment: Inhibition of PI3Kalpha (unknown origin) using PIP2 as substrate preincubated for 15 mins followed by substrate addition measured after 60 mins by HTRF method
Homo sapiens [26] = species: Homo sapiens; experiment: Selectivity ratio of IC50 for ROCK (unknown origin) to IC50 for PI3Kdelta (unknown origin)
Homo sapiens [27] = species: Homo sapiens; experiment: Selectivity ratio of IC50 for PIP4K2A (unknown origin) to IC50 for PI3Kdelta (unknown origin)
[28] = target: T1, Phosphatidylinositol 4,5-bisphosphate 3-kinase catalytic subunit delta isoform (Homo sapiens, UniProt O00329); experiment: Inhibition of PI3Kdelta (unknown origin) using PIP2 as substrate preincubated for 15 mins followed by substrate addition measured after 60 mins by HTRF method
T1 sequence (O00329 whole entry): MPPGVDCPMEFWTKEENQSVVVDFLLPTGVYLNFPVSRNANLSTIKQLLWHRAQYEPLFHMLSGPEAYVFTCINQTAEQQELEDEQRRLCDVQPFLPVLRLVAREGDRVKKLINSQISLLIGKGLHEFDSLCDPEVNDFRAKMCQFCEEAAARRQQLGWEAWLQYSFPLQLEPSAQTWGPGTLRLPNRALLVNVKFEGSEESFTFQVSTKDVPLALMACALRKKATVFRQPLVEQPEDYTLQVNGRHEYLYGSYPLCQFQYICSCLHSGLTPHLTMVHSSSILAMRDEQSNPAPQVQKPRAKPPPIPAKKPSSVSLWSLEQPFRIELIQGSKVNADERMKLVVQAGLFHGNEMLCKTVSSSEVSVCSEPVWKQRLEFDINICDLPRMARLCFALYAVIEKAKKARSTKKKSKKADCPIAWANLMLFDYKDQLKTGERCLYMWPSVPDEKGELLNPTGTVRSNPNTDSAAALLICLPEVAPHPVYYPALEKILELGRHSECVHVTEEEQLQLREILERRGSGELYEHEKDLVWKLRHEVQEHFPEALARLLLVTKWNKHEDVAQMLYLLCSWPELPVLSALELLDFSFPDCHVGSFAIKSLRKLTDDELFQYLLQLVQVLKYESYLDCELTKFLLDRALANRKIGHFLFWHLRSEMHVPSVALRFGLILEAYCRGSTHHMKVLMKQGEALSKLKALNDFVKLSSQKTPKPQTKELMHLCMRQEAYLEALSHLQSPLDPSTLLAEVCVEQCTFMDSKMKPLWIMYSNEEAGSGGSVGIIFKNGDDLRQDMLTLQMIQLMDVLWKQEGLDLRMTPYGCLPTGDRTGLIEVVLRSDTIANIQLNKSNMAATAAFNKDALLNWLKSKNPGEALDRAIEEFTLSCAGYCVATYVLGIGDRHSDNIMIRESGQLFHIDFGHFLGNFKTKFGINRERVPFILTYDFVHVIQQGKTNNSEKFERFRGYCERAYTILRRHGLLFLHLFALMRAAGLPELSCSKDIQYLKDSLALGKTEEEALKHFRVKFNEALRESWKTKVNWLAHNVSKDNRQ

Homo sapiens [29] = species: Homo sapiens; experiment: Selectivity ratio of IC50 for PI3Kalpha (unknown origin) to IC50 for PI3Kdelta (unknown origin)
Homo sapiens [30] = species: Homo sapiens; experiment: Selectivity ratio of IC50 for CHKA (unknown origin) to IC50 for PI3Kdelta (unknown origin)
Homo sapiens [31] = species: Homo sapiens; experiment: Selectivity ratio of IC50 for EGFR (unknown origin) to IC50 for PI3Kdelta (unknown origin)
Homo sapiens [32] = species: Homo sapiens; experiment: Selectivity ratio of IC50 for CHKB (unknown origin) to IC50 for PI3Kdelta (unknown origin)
Homo sapiens [33] = species: Homo sapiens; experiment: Selectivity ratio of IC50 for SPHK2 (unknown origin) to IC50 for PI3Kdelta (unknown origin)
Homo sapiens [34] = species: Homo sapiens; experiment: Selectivity ratio of IC50 for SYK (unknown origin) to IC50 for PI3Kdelta (unknown origin)
Homo sapiens [35] = species: Homo sapiens; experiment: Selectivity ratio of IC50 for PI3Kgamma (unknown origin) to IC50 for PI3Kdelta (unknown origin)
Homo sapiens [36] = species: Homo sapiens; experiment: Selectivity ratio of IC50 for JNK1 (unknown origin) to IC50 for PI3Kdelta (unknown origin)
Homo sapiens [37] = species: Homo sapiens; experiment: Selectivity ratio of IC50 for JAK3 (unknown origin) to IC50 for PI3Kdelta (unknown origin)
Homo sapiens [38] = species: Homo sapiens; experiment: Selectivity ratio of IC50 for PIK3C2B (unknown origin) to IC50 for PI3Kdelta (unknown origin)
Homo sapiens [39] = species: Homo sapiens; experiment: Selectivity ratio of IC50 for LCK (unknown origin) to IC50 for PI3Kdelta (unknown origin)
Homo sapiens [40] = species: Homo sapiens; experiment: Selectivity ratio of IC50 for DNA-PK (unknown origin) to IC50 for PI3Kdelta (unknown origin)

Voltage-gated inwardly rectifying potassium channel KCNH2, sequence (Q12809 whole entry): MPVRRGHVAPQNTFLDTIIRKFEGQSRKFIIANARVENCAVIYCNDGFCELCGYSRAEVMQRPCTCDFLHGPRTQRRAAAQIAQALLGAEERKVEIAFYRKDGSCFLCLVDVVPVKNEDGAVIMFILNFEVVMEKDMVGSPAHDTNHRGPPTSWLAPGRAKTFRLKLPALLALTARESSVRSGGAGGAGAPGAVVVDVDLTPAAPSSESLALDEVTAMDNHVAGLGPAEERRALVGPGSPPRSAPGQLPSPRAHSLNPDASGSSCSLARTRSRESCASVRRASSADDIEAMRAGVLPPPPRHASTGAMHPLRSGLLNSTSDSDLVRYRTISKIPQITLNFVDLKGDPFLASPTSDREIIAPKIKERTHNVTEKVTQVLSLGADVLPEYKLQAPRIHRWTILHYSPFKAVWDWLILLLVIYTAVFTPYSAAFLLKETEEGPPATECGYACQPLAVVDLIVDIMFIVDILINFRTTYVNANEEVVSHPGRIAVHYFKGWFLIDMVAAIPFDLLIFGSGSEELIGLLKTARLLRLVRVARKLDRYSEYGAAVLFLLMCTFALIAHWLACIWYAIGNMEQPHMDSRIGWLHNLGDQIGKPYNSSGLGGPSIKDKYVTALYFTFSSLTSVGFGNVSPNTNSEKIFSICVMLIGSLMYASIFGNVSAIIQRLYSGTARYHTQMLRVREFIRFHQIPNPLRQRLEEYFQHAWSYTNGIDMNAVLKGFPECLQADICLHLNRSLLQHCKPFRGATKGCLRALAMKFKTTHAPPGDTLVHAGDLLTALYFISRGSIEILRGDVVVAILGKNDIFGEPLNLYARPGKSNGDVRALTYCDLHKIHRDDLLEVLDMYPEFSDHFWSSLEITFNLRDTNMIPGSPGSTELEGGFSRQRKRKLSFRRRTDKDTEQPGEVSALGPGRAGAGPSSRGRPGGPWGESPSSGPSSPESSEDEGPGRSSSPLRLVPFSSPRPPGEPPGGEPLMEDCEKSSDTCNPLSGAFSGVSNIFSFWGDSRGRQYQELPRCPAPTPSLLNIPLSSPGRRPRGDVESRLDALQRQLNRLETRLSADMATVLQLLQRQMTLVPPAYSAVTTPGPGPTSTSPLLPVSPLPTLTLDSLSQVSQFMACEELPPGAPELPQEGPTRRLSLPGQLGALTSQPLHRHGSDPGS
Phosphatidylinositol 4,5-bisphosphate 3-kinase catalytic subunit alpha isoform, sequence (P42336 whole entry, canonical isoform): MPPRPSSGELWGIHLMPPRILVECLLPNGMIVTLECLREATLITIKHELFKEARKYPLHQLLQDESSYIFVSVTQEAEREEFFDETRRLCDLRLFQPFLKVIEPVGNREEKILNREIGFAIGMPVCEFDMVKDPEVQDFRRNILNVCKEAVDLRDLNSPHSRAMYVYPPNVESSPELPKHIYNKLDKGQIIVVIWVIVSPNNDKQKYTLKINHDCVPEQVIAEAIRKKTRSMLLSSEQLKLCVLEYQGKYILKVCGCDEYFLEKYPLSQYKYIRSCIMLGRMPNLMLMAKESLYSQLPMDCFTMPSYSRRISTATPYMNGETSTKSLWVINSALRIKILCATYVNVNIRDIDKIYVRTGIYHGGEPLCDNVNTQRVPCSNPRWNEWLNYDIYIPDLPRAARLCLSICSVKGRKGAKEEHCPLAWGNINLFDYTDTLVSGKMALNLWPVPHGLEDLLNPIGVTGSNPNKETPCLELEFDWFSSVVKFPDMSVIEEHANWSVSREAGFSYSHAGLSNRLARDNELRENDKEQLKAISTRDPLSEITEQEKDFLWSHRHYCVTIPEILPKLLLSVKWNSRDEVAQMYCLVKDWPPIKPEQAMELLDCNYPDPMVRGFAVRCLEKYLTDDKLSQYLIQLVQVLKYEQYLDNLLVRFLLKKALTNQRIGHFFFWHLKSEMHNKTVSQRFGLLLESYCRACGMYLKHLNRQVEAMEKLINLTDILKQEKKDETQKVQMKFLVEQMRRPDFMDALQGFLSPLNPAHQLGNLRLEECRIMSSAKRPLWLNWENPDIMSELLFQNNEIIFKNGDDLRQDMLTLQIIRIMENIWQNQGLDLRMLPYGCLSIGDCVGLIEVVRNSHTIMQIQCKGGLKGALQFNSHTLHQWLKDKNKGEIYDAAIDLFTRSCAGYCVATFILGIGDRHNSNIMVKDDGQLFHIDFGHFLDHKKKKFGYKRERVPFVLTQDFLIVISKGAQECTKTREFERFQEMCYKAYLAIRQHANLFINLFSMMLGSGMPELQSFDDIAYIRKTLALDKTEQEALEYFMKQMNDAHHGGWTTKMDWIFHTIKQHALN
Phosphatidylinositol 4,5-bisphosphate 3-kinase catalytic subunit beta isoform, sequence (P42338 whole entry, canonical isoform): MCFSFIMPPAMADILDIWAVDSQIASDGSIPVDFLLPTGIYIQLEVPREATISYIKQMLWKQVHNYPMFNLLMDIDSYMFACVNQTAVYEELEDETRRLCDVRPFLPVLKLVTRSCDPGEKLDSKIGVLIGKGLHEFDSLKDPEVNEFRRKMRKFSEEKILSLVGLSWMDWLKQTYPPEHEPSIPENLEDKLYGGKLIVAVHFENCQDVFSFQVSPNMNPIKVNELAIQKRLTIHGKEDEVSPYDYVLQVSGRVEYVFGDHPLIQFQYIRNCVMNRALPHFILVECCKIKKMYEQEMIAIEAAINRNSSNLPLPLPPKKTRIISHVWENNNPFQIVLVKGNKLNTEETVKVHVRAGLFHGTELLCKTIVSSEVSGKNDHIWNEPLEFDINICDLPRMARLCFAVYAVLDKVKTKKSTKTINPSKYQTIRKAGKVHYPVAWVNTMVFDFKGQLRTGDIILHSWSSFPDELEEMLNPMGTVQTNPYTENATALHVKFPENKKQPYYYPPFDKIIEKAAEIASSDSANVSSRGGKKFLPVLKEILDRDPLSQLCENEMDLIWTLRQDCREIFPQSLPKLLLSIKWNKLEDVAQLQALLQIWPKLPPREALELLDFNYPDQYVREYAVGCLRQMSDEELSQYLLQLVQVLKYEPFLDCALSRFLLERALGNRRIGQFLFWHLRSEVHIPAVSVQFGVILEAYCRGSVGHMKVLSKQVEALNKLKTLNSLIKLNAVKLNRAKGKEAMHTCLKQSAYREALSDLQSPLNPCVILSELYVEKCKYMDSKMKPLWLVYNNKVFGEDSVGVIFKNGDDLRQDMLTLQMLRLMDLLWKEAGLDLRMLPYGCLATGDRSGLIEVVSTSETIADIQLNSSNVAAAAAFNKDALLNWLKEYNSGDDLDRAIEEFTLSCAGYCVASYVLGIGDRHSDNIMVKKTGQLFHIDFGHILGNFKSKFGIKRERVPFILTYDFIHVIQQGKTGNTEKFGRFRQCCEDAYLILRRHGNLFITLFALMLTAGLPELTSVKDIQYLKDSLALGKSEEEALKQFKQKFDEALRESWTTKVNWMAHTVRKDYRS
Phosphatidylinositol 4,5-bisphosphate 3-kinase catalytic subunit gamma isoform, sequence (P48736 whole entry, canonical isoform): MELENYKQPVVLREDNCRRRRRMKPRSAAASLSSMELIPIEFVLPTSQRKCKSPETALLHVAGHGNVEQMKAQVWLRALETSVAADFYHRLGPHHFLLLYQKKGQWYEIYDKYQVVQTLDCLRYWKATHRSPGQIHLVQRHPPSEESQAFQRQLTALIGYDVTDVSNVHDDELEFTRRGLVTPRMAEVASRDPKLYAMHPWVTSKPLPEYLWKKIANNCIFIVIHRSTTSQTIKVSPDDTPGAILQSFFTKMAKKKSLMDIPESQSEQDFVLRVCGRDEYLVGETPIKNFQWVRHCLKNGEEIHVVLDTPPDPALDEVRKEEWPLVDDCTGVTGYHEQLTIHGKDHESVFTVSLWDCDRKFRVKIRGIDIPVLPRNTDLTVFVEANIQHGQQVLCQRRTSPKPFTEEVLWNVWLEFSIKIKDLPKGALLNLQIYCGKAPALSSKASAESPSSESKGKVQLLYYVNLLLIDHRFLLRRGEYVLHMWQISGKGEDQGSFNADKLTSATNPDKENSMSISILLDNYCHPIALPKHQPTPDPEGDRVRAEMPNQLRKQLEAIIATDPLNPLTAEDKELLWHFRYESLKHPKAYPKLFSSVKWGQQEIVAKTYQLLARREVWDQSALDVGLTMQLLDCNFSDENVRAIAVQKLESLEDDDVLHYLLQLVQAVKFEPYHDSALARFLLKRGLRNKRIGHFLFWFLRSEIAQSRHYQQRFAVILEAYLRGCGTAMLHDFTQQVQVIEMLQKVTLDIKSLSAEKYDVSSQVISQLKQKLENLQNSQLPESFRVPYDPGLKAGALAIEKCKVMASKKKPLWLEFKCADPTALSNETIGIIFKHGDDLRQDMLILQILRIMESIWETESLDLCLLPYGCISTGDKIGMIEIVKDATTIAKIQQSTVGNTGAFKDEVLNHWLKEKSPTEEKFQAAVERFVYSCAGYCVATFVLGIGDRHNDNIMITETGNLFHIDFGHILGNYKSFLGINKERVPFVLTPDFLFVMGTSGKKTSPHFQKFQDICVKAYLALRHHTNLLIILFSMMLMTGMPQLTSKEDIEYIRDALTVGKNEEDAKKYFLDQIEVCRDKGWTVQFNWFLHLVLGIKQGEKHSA
serum albumin, sequence (P02768 whole entry): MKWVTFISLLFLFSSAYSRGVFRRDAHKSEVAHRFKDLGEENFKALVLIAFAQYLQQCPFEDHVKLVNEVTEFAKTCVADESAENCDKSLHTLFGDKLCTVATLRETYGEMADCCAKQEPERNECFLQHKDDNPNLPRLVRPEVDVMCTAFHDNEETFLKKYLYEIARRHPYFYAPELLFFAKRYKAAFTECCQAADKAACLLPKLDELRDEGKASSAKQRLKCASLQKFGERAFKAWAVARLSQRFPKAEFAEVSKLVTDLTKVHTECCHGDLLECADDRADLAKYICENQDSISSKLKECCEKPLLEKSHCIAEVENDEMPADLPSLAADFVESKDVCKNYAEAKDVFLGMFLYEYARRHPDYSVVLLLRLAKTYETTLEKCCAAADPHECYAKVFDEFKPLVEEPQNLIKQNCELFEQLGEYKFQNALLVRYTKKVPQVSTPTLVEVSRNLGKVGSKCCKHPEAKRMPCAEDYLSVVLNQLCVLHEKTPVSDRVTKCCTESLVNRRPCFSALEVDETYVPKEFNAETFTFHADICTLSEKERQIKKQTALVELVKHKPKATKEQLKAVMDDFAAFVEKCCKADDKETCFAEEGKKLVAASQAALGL

For `COc1ncc(C2=CCOCC2)cc1NS(=O)(=O)c1cn(Cc2ccccc2)c(C)n1`, which Ratio IC50 (Homo sapiens [1]) is on record?
Its Ratio IC50 is over 100.

And the Ratio IC50 (Homo sapiens [2])?
The Ratio IC50 was over 100.

And the clearance [3]?
Its clearance is 7.9 mL/min/g.

And the Ratio IC50 (Homo sapiens [4])?
Its Ratio IC50 is over 100.

And the pIC50 [5]?
The pIC50 was under 4.30.

What about the Ratio IC50 (Homo sapiens [6]) of the same compound?
Its Ratio IC50 is over 100.

What about the Ratio IC50 (Homo sapiens [7]) of the same compound?
The Ratio IC50 was over 100.

What about the Ratio IC50 (Homo sapiens [8]) of the same compound?
Its Ratio IC50 is over 100.

And the Ratio IC50 (Homo sapiens [9])?
The Ratio IC50 was over 100.

What about the Ratio IC50 (Homo sapiens [10]) of the same compound?
The Ratio IC50 was over 100.

What about the Ratio IC50 (Homo sapiens [11]) of the same compound?
Its Ratio IC50 is over 100.

And the Ratio IC50 (Homo sapiens [12])?
Its Ratio IC50 is over 100.

And the Ratio IC50 (Homo sapiens [13])?
Its Ratio IC50 is over 100.

What about the pIC50 (PBMC) of the same compound?
The pIC50 was 7.30.

What about the fraction unbound (serum albumin) of the same compound?
The fraction unbound was 0.101.

And the Ratio IC50 (Homo sapiens [14])?
Its Ratio IC50 is over 100.

And the Ratio IC50 (Homo sapiens [15])?
Its Ratio IC50 is over 100.

What about the clearance [16] of the same compound?
Its clearance is 17.4 mL/min/g.

What about the Ratio IC50 (Homo sapiens [17]) of the same compound?
Its Ratio IC50 is over 100.

And the Ratio IC50 (Homo sapiens [18])?
Its Ratio IC50 is over 100.

What about the pIC50 [19] of the same compound?
Its pIC50 is 6.00.

And the solubility kinetic at 1 h [20]?
Its solubility kinetic at 1 h is 12 µg/mL (≈ 27.2 µM).

What about the pIC50 [21] of the same compound?
The pIC50 was 6.00.

What about the Ratio IC50 (Homo sapiens [22]) of the same compound?
The Ratio IC50 was over 100.

And the Ratio IC50 (Homo sapiens [23])?
Its Ratio IC50 is over 100.

And the Ratio IC50 (Homo sapiens [24])?
The Ratio IC50 was over 100.

What about the pIC50 [25] of the same compound?
The pIC50 was 6.20.

And the Ratio IC50 (Homo sapiens [26])?
The Ratio IC50 was over 100.

And the Ratio IC50 (Homo sapiens [27])?
Its Ratio IC50 is over 100.

And the pIC50 [28]?
Its pIC50 is 8.20.

And the Ratio IC50 (Homo sapiens [29])?
The Ratio IC50 was over 100.

What about the Ratio IC50 (Homo sapiens [30]) of the same compound?
Its Ratio IC50 is over 100.

What about the Ratio IC50 (Homo sapiens [31]) of the same compound?
Its Ratio IC50 is over 100.

And the Ratio IC50 (Homo sapiens [32])?
Its Ratio IC50 is over 100.

What about the Ratio IC50 (Homo sapiens [33]) of the same compound?
Its Ratio IC50 is over 100.

What about the Ratio IC50 (Homo sapiens [34]) of the same compound?
The Ratio IC50 was over 100.

What about the Ratio IC50 (Homo sapiens [35]) of the same compound?
Its Ratio IC50 is over 100.

And the Ratio IC50 (Homo sapiens [36])?
The Ratio IC50 was over 100.

And the Ratio IC50 (Homo sapiens [37])?
The Ratio IC50 was over 100.

What about the Ratio IC50 (Homo sapiens [38]) of the same compound?
The Ratio IC50 was over 100.

And the Ratio IC50 (Homo sapiens [39])?
The Ratio IC50 was over 100.

And the Ratio IC50 (Homo sapiens [40])?
The Ratio IC50 was over 100.
